Assay results: US10259810B2, “N-sulfonylated pyrazolo[3,4-b]pyridin-6-carboxamides and method of use” (AbbVie S.à.r.l., priority 2015, dated 2019)

Experiments:
ΔF508-CFTR [1] = target: T1, ΔF508-CFTR (Homo sapiens, UniProt P13569, DEL508-508); test: CFTR cell surface levels using HRP-tagged ΔF508-CFTR expressing CFBE cells, in the presence of a co-corrector; type: cell-based; settings: HRP-tagged ΔF508-CFTR CFBE cells, in the presence of 3 μM co-corrector; for EC50: read-out: EC50
T1 construct: host or cells: CFBE41o-, doxycycline-inducible
Procedure, shortened: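 Chemiluminescent read-out of surface HRP (15 min, dark) after PBS washes. Activity is normalized as 100×(sample−DMSO)/(3 μM co-corrector alone−DMSO).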

ΔF508-CFTR [2] = target: T1, ΔF508-CFTR; test: CFTR cell surface levels using HRP-tagged ΔF508-CFTR expressing CFBE cells, intrinsic corrector capacity; type: cell-based; parameters: % Activation: concentration or dose not given beside the values; settings: HRP-tagged ΔF508-CFTR expressing CFBE41o- cells, compound alone (intrinsic corrector capacity), 20 hours at 33° C.; for EC50: read-out: EC50
Procedure, shortened: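 Surface ΔF508-CFTR was measured as HRP chemiluminescence from an extracellular-loop-4 tag, expressed as percent activity between DMSO and a […] corrector control.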

T1 sequence (P13569 with tags, fused parts or gaps DEL508-508): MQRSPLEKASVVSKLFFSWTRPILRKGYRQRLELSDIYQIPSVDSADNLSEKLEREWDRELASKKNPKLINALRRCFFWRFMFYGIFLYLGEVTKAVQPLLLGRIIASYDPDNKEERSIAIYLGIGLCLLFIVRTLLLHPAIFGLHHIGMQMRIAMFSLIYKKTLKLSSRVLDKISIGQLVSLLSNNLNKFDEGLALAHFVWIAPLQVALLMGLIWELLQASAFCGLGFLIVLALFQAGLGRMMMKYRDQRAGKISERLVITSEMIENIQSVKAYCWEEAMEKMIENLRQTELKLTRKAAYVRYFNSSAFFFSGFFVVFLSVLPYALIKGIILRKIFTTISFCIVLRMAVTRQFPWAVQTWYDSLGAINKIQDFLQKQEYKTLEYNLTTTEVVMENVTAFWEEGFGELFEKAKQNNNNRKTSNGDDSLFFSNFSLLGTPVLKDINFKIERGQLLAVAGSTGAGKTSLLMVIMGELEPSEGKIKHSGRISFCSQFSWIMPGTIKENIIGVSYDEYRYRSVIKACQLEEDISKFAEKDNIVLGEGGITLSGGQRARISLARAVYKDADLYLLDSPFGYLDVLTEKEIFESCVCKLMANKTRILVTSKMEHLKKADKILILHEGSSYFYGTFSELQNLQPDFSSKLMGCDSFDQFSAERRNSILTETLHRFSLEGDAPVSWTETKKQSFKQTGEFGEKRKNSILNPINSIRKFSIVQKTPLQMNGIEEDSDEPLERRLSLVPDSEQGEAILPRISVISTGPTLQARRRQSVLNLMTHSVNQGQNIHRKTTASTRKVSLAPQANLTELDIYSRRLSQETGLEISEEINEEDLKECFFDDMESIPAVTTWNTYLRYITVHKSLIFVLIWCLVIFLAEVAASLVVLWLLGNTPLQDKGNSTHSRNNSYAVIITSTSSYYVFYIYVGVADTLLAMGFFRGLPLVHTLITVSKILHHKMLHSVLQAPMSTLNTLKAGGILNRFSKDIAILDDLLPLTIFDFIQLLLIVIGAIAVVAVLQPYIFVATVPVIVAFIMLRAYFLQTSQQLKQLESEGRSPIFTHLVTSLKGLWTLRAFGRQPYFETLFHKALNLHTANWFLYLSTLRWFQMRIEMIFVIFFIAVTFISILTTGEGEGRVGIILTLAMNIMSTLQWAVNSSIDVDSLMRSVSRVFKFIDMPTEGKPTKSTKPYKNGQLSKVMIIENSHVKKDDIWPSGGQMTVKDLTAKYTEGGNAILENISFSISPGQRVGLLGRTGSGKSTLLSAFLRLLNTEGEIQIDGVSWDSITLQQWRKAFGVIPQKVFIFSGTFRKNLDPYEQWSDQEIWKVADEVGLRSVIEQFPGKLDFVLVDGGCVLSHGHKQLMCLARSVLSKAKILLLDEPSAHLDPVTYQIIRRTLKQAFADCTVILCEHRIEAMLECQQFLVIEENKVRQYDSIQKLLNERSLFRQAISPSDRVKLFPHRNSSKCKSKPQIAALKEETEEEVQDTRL

SMILES | % Activation (ΔF508-CFTR [1]) [%] | EC50 (ΔF508-CFTR [1]) [µM] | % Activation (ΔF508-CFTR [2]) [%] | EC50 (ΔF508-CFTR [2]) [µM]
COCC1CCN(c2cc(C(=O)NS(C)(=O)=O)nc3c2c(C(C)C)nn3C2CCCCC2)CC1 [Compound 218, 1-cyclohexyl-N-(methanesulfonyl)-4-[4-(methoxymethyl)piperidin-1-yl]-3-(propan-2-yl)-1H-pyrazolo[3,4-b]pyridine-6-carboxamide] | 476.9 | 0.239 | 268.37 | 0.39
CN(C)CCCOc1cc(C(=O)NS(C)(=O)=O)nc2c1c(C1CCC1)nn2-c1ccccc1 [Compound 303, 3-cyclobutyl-4-[3-(dimethylamino)propoxy]-N-(methanesulfonyl)-1-phenyl-1H-pyrazolo[3,4-b]pyridine-6-carboxamide] | 339.95 | 0.834 | 149.9 | 3.33
COCCN(C)c1ccc(-c2cc(C(=O)NS(C)(=O)=O)nc3c2c(C(C)C)nn3-c2cccc(C(F)(F)F)c2)cc1 [Compound 132, N-(methanesulfonyl)-4-{4-[(2-methoxyethyl)(methyl)amino]phenyl}-3-(propan-2-yl)-1-[3-(trifluoromethyl)phenyl]-1H-pyrazolo[3,4-b]pyridine-6-carboxamide] | 417.2 | 0.882 | 244 | 1.27
CCS(=O)(=O)NC(=O)c1cc(N2CCC(OC)CC2)c2c(C(C)C)nn(-c3cccc(C)c3)c2n1 [Compound 118, N-(ethanesulfonyl)-4-(4-methoxypiperidin-1-yl)-1-(3-methylphenyl)-3-(propan-2-yl)-1H-pyrazolo[3,4-b]pyridine-6-carboxamide] | 469 | 0.28 | 289.93 | 0.398
CC(C)c1nn(-c2ccccc2)c2nc(C(=O)NS(C)(=O)=O)cc(-c3cnc(N4CCOCC4)nc3)c12 [Compound 20, N-(methanesulfonyl)-4-[2-(morpholin-4-yl)pyrimidin-5-yl]-1-phenyl-3-(propan-2-yl)-1H-pyrazolo[3,4-b]pyridine-6-carboxamide] | 417.5 | 0.546 | 210.3 | 0.669
CCS(=O)(=O)NC(=O)c1cc(-c2ccc(N3CCOCC3)cc2)c2c(C)nn(-c3cccc(F)c3)c2n1 [Compound 68, N-(ethanesulfonyl)-1-(3-fluorophenyl)-3-methyl-4-[4-(morpholin-4-yl)phenyl]-1H-pyrazolo[3,4-b]pyridine-6-carboxamide] | 456.6 | 0.847 | 253.3 | 1.08
Cc1cccc(-n2nc(C(C)C)c3c(N4CCCCC4)cc(C(=O)NS(C)(=O)=O)nc32)c1 [Compound 101, N-(methanesulfonyl)-1-(3-methylphenyl)-4-(piperidin-1-yl)-3-(propan-2-yl)-1H-pyrazolo[3,4-b]pyridine-6-carboxamide] | 455.4 | 0.409 | 254.85 | 0.839
CCS(=O)(=O)NC(=O)c1cc(-c2ccc(N3CCOCC3)nc2)c2c(C)nn(-c3cccc(C(F)(F)F)c3)c2n1 [Compound 58, N-(ethanesulfonyl)-3-methyl-4-[6-(morpholin-4-yl)pyridin-3-yl]-1-[3-(trifluoromethyl)phenyl]-1H-pyrazolo[3,4-b]pyridine-6-carboxamide] | 352.5 | 0.422 | 196.2 | 0.756
COCCS(=O)(=O)NC(=O)c1cc(-c2ccc(N3CCC(C#N)CC3)nc2)c2c(n1)n(-c1ccccc1)nc2[C@H]1C[C@H](C)C1 [Compound 276, 4-[6-(4-cyanopiperidin-1-yl)pyridin-3-yl]-N-(2-methoxyethanesulfonyl)-3-(trans-3-methylcyclobutyl)-1-phenyl-1H-pyrazolo[3,4-b]pyridine-6-carboxamide] | 417.25 | 0.0429 | 356.7 | 0.779
COCCS(=O)(=O)NC(=O)c1cc(N2CCC(N3CCCCC3)CC2)c2c(C3CCC3)nn(-c3ccc(F)cc3)c2n1 [Compound 488, 4-([1,4'-bipiperidin]-1'-yl)-3-cyclobutyl-1-(4-fluorophenyl)-N-(2-methoxyethanesulfonyl)-1H-pyrazolo[3,4-b]pyridine-6-carboxamide] | 488.15 | 0.683 | 246.55 | 0.655
CN(C)S(=O)(=O)NC(=O)c1cc(CN2CCOCC2)c2c(C3CCC3)nn(-c3ccc(F)cc3)c2n1 [Compound 520, 3-cyclobutyl-N-(dimethylsulfamoyl)-1-(4-fluorophenyl)-4-[(morpholin-4-yl)methyl]-1H-pyrazolo[3,4-b]pyridine-6-carboxamide] | 207.1 | 0.924 | 60 | 1.06
COc1cc(F)cc(-n2nc(C)c3c(-c4c(F)cc(OC)cc4F)cc(C(=O)NS(C)(=O)=O)nc32)c1 [Compound 129, 4-(2,6-difluoro-4-methoxyphenyl)-1-(3-fluoro-5-methoxyphenyl)-N-(methanesulfonyl)-3-methyl-1H-pyrazolo[3,4-b]pyridine-6-carboxamide] | 307.3 | 0.79 | 187.5 | 1.33
O=C(NS(=O)(=O)N1CCC(N2CCCCC2)CC1)c1cc(OCC2CCOCC2)c2c(C3CCC3)nn(-c3ccccc3)c2n1 [Compound 353, N-([1,4'-bipiperidine]-1'-sulfonyl)-3-cyclobutyl-4-[(oxan-4-yl)methoxy]-1-phenyl-1H-pyrazolo[3,4-b]pyridine-6-carboxamide] | 193.45 | 0.346 | 56.22 | 0.0879
COCCS(=O)(=O)NC(=O)c1cc(N2CCC(CN3CCCC3)CC2)c2c(C3CCC3)nn(-c3ccccc3)c2n1 [Compound 464, 3-cyclobutyl-N-(2-methoxyethanesulfonyl)-1-phenyl-4-{4-[(pyrrolidin-1-yl)methyl]piperidin-1-yl}-1H-pyrazolo[3,4-b]pyridine-6-carboxamide] | 423.3 | 0.17 | 277.5 | 0.306
CC(C)c1nn(-c2ccc(F)cc2)c2nc(C(=O)NS(C)(=O)=O)cc(C3CCN(C(=O)OC(C)(C)C)CC3)c12 [Compound 378, tert-butyl 4-[1-(4-fluorophenyl)-6-[(methanesulfonyl)carbamoyl]-3-(propan-2-yl)-1H-pyrazolo[3,4-b]pyridin-4-yl]piperidine-1-carboxylate] | 318.6 | 0.658 | 160 | 1.33
COCC1CCN(c2cc(C(=O)NS(=O)(=O)CC(C)C)nc3c2c(C2CCC2)nn3-c2ccccc2)CC1 [Compound 375, 3-cyclobutyl-4-[4-(methoxymethyl)piperidin-1-yl]-N-(2-methylpropane-1-sulfonyl)-1-phenyl-1H-pyrazolo[3,4-b]pyridine-6-carboxamide] | 546.75 | 0.241 | 321.6 | 0.571
CC(C)c1nn(C2CCCOC2)c2nc(C(=O)NS(C)(=O)=O)cc(-c3ccc(N4CCC(C#N)CC4)nc3)c12 (stereo not drawn) [Compound 145, 4-[6-(4-cyanopiperidin-1-yl)pyridin-3-yl]-N-(methanesulfonyl)-1-(oxan-3-yl)-3-(propan-2-yl)-1H-pyrazolo[3,4-b]pyridine-6-carboxamide] | 271.43 | 0.636 | 112.03 | 1.04
CS(=O)(=O)NC(=O)c1cc(N2CCC(N3CCOCC3)CC2)c2c(C3CCC3)nn(-c3cccc(C(F)(F)F)c3)c2n1 [Compound 516, 3-cyclobutyl-N-(methanesulfonyl)-4-[4-(morpholin-4-yl)piperidin-1-yl]-1-[3-(trifluoromethyl)phenyl]-1H-pyrazolo[3,4-b]pyridine-6-carboxamide] | 545.3 | 0.0566 | 322.7 | 0.12
CCS(=O)(=O)NC(=O)c1cc(-c2ccc(N3CCOCC3)cc2)c2c(C)nn(-c3cc(C)cc(C)c3)c2n1 [Compound 115, 1-(3,5-dimethylphenyl)-N-(ethanesulfonyl)-3-methyl-4-[4-(morpholin-4-yl)phenyl]-1H-pyrazolo[3,4-b]pyridine-6-carboxamide] | 389.6 | 0.665 | 216.05 | 1.05
CC1(c2nn(-c3ccccc3)c3nc(C(=O)NS(C)(=O)=O)cc(-c4ccc(N5CCOCC5)cc4)c23)CCC1 [Compound 137, N-(methanesulfonyl)-3-(1-methylcyclobutyl)-4-[4-(morpholin-4-yl)phenyl]-1-phenyl-1H-pyrazolo[3,4-b]pyridine-6-carboxamide] | 339.7 | 0.638 | 131.8 | 1.17
CS(=O)(=O)NC(=O)c1cc(N2CCC(N3CCCCC3)CC2)c2c(C3CCC3)nn(-c3ccc(F)cc3)c2n1 [Compound 450, 4-([1,4'-bipiperidin]-1'-yl)-3-cyclobutyl-1-(4-fluorophenyl)-N-(methanesulfonyl)-1H-pyrazolo[3,4-b]pyridine-6-carboxamide] | 443.25 | 0.246 | 253.5 | 0.617
